Experimental data: patent US10294202B2, “Pyrrolidinones as herbicides” (FMC Corporation, priority 2013, dated 2019)

Columns and labels:
[1] = tested on: johnsongrass; assay: Test C pre-/postemergence herbicide test; assay type: in vivo, Sorghum halepense
Method in brief: (§1)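 Compound solutions contained surfactant in a non-phytotoxic solvent. These were sprayed onto pots of loam/sand sown with seeds, and onto young plants (2 to 18 cm, 1- to 4-leaf) in sphagnum peat–vermiculite mix. Visual injury scores (0 none, 100 complete control) were recorded after 13 to 15 days.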

[2] = tested on: ragweed; assay: Test C pre-/postemergence herbicide test; assay type: in vivo, Ambrosia elatior
Method in brief: as §1

[3] = tested on: ryegrass, Italian; assay: Test C pre-/postemergence herbicide test; assay type: in vivo, Lolium multiflorum
Method in brief: as §1

[4] = tested on: wheat; assay: Test A pre-/postemergence herbicide test; assay type: in vivo, Triticum aestivum
Method in brief: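 Formulated compound (non-phytotoxic solvent, surfactant) sprayed pre- onto soil of seeded loam/sand pots or post- onto seedlings at 1–2 leaves; ~10 d greenhouse; 0–100 visual control rating versus untreated.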

[5] = tested on: oat, wild; assay: Test C pre-/postemergence herbicide test; assay type: in vivo, Avena fatua
From the text: Seeds of plant species selected from blackgrass (Alopecurus myosuroides), ryegrass, Italian (Italian ryegrass, Lolium multiflorum), wheat (winter wheat, Triticum aestivum), galium (catchweed bedstraw, Galium aparine), corn (Zea mays), crabgrass, large (large crabgrass, Digitaria sanguinalis), foxtail, giant (giant foxtail, Setaria faberii), johnsongrass (Sorghum halepense), lambsquarters (Chenopodium album), morningglory (Ipomoea coccinea), nutsedge, yellow (yellow nutsedge, Cyperus esculentus), pigweed (Amaranthus retroflexus), ragweed (common ragweed, Ambrosia elatior), soybean (Glycine max), barnyardgrass (Echinochloa crus-galli), oilseed rape (Brassica napus), waterhemp (common waterhemp, Amaranthus rudis), kochia (Kochia scoparia), oat, wild (wild oat, Avena fatua), surinam grass (Brachiaria decumbens), foxtail, green (green foxtail, Setaria viridis), goosegrass (Eleusine indica), bromegrass, downy (downy bromegrass, Bromus tectorum), nightshade (eastern black nightshade, Solanum ptycanthum), cocklebur (common cocklebur, Xanthium strumarium), cupgrass, woolly (woolly cupgrass, Eriochloa villosa), bermudagrass (Cynodon dactylon), sunflower, (common oilseed sunflower, Helianthus annuus), Russian thistle (Salsola kali) and velvetleaf (Abutilon theophrasti) were planted into a blend of loam soil and sand and treated preemergence with test chemicals formulated in a non-phytotoxic solvent mixture which included a surfactant. At the same time, plants selected from these crop and weed species and also barley (winter barley, Hordeum vulgare), […]), chickweed (common chickweed, Stellaria media), deadnettle (henbit deadnettle, Lamium amplexicaule), and canarygrass (littleseed canarygrass, Phalaris minor) were planted in pots containing Redi-Earth® planting medium (Scotts Company, 14111 Scottslawn Road, Marysville, Ohio 43041) comprising spaghnum peat moss, vermiculite, wetting agent and starter nutrients and treated with postemergence applications of test chemicals formulated in the same manner. Plants ranged in height from 2 to 18 cm (1- to 4-leaf stage) for postemergence treatments. Treated plants and controls were maintained in a greenhouse for 13 to 15 days, after which time all species were compared to controls and visually evaluated. Plant response ratings, summarized in Table C, are based on a scale of 0 to 100 where 0 is no effect and 100 is complete control. A dash (-) response means no test result.

[6] = tested on: corn; assay: Test C pre-/postemergence herbicide test; assay type: in vivo, Zea mays
Method in brief: as §1

[7] = tested on: soybean; assay: Test C pre-/postemergence herbicide test; assay type: in vivo, Glycine max
Method in brief: as §1

[8] = tested on: blackgrass; assay: Test C pre-/postemergence herbicide test; assay type: in vivo, Alopecurus myosuroides
Method in brief: as §1

[9] = tested on: crabgrass, large; assay: Test C pre-/postemergence herbicide test; assay type: in vivo, Digitaria sanguinalis
Method in brief: as §1

[10] = tested on: galium; assay: Test C pre-/postemergence herbicide test; assay type: in vivo, Galium aparine; settings: Preemergence
Method in brief: as §1

[11] = Postemergence, 16 g ai/ha, scale 0 to 100 (0 no effect, 100 complete control)
[12] = Postemergence, 31 g ai/ha, scale 0 (no effect) to 100 (complete control)
[13] = Postemergence, 62 g ai/ha, scale 0 to 100 (0 no effect, 100 complete control)
[14] = Postemergence, 125 g ai/ha, scale 0 to 100 (0 no effect, 100 complete control)
[15] = Preemergence, 62 g ai/ha, scale 0 to 100
[16] = Preemergence, 125 g ai/ha, scale 0 to 100 (0 no effect, 100 complete control)
[17] = Preemergence, 16 g ai/ha, scale 0 to 100
[18] = Preemergence, 31 g ai/ha, scale 0 to 100 (0 no effect, 100 complete control)

O=C1NCC(c2cc(F)c(F)c(F)c2)C1C(=O)Nc1cccc(F)c1F (stereo not shown) [Compound 48]
Plant response rating, Johnsongrass [1, 11]: 0 | Plant response rating, Johnsongrass [1, 12]: 0 | Plant response rating, Johnsongrass [1, 13]: 0 | Plant response rating, Johnsongrass [1, 14]: 0 | Plant response rating, Johnsongrass [1, 15]: 10 | Plant response rating, Johnsongrass [1, 16]: 20 | Plant response rating, Johnsongrass [1, 17]: 0 | Plant response rating, Ragweed [2, 11]: 0 | Plant response rating, Ragweed [2, 12]: 5 | Plant response rating, Ragweed [2, 13]: 5 | Plant response rating, Ragweed [2, 14]: 35 | Plant response rating, Ragweed [2, 15]: 10 | Plant response rating, Ragweed [2, 16]: 10 | Plant response rating, Ragweed [2, 17]: 0 | Plant response rating, Ryegrass, Italian [3, 11]: 0 | Plant response rating, Ryegrass, Italian [3, 12]: 0 | Plant response rating, Ryegrass, Italian [3, 13]: 0 | Plant response rating, Ryegrass, Italian [3, 14]: 0 | Plant response rating, Ryegrass, Italian [3, 15]: 0 | Plant response rating, Ryegrass, Italian [3, 16]: 0 | Plant response rating, Ryegrass, Italian [3, 17]: 0 | Plant response rating, Wheat ([4]; Postemergence, 125 g ai/ha, 0 to 100 scale, 0 no effect, 100 complete control): 20 | Plant response rating, Wheat ([4]; Postemergence, 500 g ai/ha, 0 to 100 scale (0 no effect, 100 complete control)): 40 | Wheat plant response rating ([4]; Preemergence, 125 g ai/ha, visual rating on 0 to 100 scale (0 no effect, 100 complete control)): 0 | Plant response rating, Wheat ([4]; preemergence, 500 g ai/ha, 0 to 100 scale): 50 | Plant response rating, Oat, Wild [5, 11]: 0 | Plant response rating, Oat, Wild [5, 12]: 0 | Plant response rating, Oat, Wild [5, 13]: 0 | Plant response rating, Oat, Wild [5, 14]: 0 | Plant response rating, Oat, Wild [5, 15]: 0 | Plant response rating, Oat, Wild [5, 16]: 10 | Plant response rating, Oat, Wild [5, 17]: 0 | Plant response rating, Corn [6, 11]: 0 | Plant response rating, Corn [6, 12]: 5 | Plant response rating, Corn [6, 13]: 5 | Plant response rating, Corn [6, 14]: 5 | Plant response rating, Corn [6, 15]: 20 | Plant response rating, Corn [6, 16]: 20 | Plant response rating, Corn [6, 17]: 0 | Corn plant response rating [6, 18]: 0 | Plant response rating, Soybean [7, 11]: 5 | Plant response rating, Soybean [7, 12]: 10 | Plant response rating, Soybean [7, 13]: 10 | Plant response rating, Soybean [7, 14]: 10 | Plant response rating, Soybean [7, 15]: 10 | Plant response rating, Soybean [7, 16]: 15 | Plant response rating, Soybean [7, 17]: 10 | Plant response rating, Blackgrass [8, 11]: 0 | Plant response rating, Blackgrass [8, 12]: 0 | Plant response rating, Blackgrass [8, 13]: 0 | Plant response rating, Blackgrass [8, 14]: 0 | Plant response rating, Blackgrass [8, 15]: 20 | Plant response rating, Blackgrass [8, 16]: 50 | Plant response rating, Blackgrass [8, 17]: 0 | Blackgrass plant response rating [8, 18]: 0 | Plant response rating, Crabgrass, Large [9, 11]: 20 | Plant response rating, Crabgrass, Large [9, 12]: 40 | Plant response rating, Crabgrass, Large [9, 13]: 65 | Plant response rating, Crabgrass, Large [9, 14]: 75 | Plant response rating, Crabgrass, Large [9, 15]: 90 | Plant response rating, Crabgrass, Large [9, 16]: 95 | Plant response rating, Crabgrass, Large [9, 17]: 75 | Crabgrass, Large plant response rating [9, 18]: 85 | Plant response rating, Galium ([10]; 62 g ai/ha, scale 0 to 100): 30 | Plant response rating, Galium ([10]; 125 g ai/ha, scale 0 to 100 (0 no effect, 100 complete control)): 60 | Plant response rating, Galium ([10]; 16 g ai/ha, scale 0 to 100): 0 | Galium plant response rating ([10]; 31 g ai/ha, scale 0 to 100 (0 no effect, 100 complete control)): 0
